A short description of this data set: refractive index (Na D-line) (dimensionless). The following applies: 101.33 kPa, Standard Abbe refractometry.

± gives the expanded uncertainty stated by the source.

The term refractive index denotes the speed of light in vacuum divided by its phase velocity in the sample. As to `CCCCCCCC/C=C\CCCCCCCC(=O)O.NCCO` [2-hydroxyethylammonium oleate], the refractive index was 1.496 ± 0.00069 (278.45 K, Crystal); 1.49406 ± 0.00068 (288.35 K, Liquid crystal of unknown type); 1.48994 ± 0.00068 (298.15 K, Liquid crystal of unknown type); 1.48558 ± 0.00068 (308.25 K, Liquid crystal of unknown type); 1.48343 ± 0.00068 (313.21 K, Liquid crystal of unknown type); 1.47901 ± 0.00068 (323.45 K, Liquid crystal of unknown type). Also, for the setting “333.25 K, Liquid crystal of unknown type”, the refractive index came out at 1.4747 ± 0.00068.
As to `CCCCCCCC/C=C\CCCCCCCC(=O)[O-].OCC[NH2+]CCO` [bis(2-hydroxyethyl)ammonium oleate], the refractive index is, setting by setting: (278.35 K, Liquid crystal of unknown type) 1.4956 ± 0.00068; (288.25 K, Liquid crystal of unknown type) 1.49226 ± 0.00068; (298.05 K, Liquid crystal of unknown type) 1.48855 ± 0.00068; (308.22 K, Liquid crystal of unknown type) 1.48463 ± 0.00068; (318.23 K, Liquid crystal of unknown type) 1.48023 ± 0.00068; (328.05 K, Liquid crystal of unknown type) 1.47673 ± 0.00068. Also, the refractive index came to 1.47267 ± 0.00068 (338.05 K, Liquid crystal of unknown type); 1.47055 ± 0.00075 (341.15 K, Liquid crystal of unknown type); 1.46364 ± 0.00094 (343.25 K, Liquid crystal of unknown type).

These data come from the NIST ThermoML archive (doi:10.1016/j.fluid.2010.08.022).
